Counter-ions that a name gives are not always drawn. Like-named read-outs stand apart in the source and are kept apart here.
Tests used:
CDC7 = CDC7 (Homo sapiens, UniProt O00311); assay: CDC7 inhibition, biochemical chemiluminescence assay (Kinase Glo, IC50 determination)
Procedure, shortened: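 CDC7 enzyme preincubated with compound 10 min at ambient temperature, then ATP mix in Tris Base added; reaction 90 min at 24-27 °C. Remaining ATP quantified by Kinase Glo luminescence to give IC50.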

[1] = biological target: PIM (PIM-1, PIM-2, and/or PIM-3); assay: PIM-1, PIM-2 and PIM-3 inhibition, biochemical chemiluminescence assays (Kinase Glo, IC50 determination); conditions: Table 1 activity class; PIM refers to PIM-1, PIM-2, and/or PIM-3; read-out: PIM IC50 (Activity B)
CK2 = CK2 (Homo sapiens, UniProt P68400); assay: CK2 inhibition, biochemical chemiluminescence holoenzyme assay (Kinase Glo, IC50 determination); conditions: Table 1 activity class; symbol given only if active; read-out: CK2 IC50 (Activity C)
CK2, sequence (P68400 whole entry): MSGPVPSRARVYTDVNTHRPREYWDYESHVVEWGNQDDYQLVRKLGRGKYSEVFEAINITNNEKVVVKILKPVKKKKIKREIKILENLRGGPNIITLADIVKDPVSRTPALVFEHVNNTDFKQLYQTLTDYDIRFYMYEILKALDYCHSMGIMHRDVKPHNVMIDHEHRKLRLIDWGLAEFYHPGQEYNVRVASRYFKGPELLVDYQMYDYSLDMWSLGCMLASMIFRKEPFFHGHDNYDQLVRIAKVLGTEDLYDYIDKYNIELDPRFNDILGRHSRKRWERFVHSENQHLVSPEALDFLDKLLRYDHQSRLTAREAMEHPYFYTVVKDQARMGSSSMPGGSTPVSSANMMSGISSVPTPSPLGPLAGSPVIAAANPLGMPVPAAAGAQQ
CK2, sequence (P67870 whole entry partner): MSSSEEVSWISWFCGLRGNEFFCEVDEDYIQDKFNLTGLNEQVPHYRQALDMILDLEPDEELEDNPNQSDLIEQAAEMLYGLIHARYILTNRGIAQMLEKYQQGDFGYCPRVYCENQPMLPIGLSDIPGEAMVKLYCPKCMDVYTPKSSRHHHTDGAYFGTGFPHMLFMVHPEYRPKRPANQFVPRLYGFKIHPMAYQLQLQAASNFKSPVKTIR
Procedure, shortened: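 Holoenzyme CK2 assay; compounds pre-incubated with substrate and enzyme, then reacted 150 min at 24-27° C. Remaining ATP measured as luminescence with Kinase Glo, and IC50 derived from the signal.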

[2] = Table 1 activity class, symbol given only if active, read-out: CDC7 IC50 (Activity A)
[3] = compounds in Table 1, read-out: CDC7 IC50 value

CDC7, sequence (O00311 whole entry): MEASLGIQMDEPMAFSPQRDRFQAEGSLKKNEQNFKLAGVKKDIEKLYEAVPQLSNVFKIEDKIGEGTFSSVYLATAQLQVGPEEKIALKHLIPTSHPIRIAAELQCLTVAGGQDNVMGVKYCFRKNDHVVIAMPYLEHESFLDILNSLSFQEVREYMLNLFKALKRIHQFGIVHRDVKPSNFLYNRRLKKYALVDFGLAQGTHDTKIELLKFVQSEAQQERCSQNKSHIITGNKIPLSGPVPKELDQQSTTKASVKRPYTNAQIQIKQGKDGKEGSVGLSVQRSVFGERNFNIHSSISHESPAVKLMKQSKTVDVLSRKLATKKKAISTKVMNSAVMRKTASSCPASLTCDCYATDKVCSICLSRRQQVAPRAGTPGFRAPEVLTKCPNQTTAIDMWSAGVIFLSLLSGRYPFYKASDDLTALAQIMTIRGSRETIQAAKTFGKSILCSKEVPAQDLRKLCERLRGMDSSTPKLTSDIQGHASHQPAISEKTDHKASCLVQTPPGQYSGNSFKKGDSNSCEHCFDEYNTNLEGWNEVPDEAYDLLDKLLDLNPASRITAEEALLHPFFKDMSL
CDC7, sequence (Q9UBU7 whole entry partner): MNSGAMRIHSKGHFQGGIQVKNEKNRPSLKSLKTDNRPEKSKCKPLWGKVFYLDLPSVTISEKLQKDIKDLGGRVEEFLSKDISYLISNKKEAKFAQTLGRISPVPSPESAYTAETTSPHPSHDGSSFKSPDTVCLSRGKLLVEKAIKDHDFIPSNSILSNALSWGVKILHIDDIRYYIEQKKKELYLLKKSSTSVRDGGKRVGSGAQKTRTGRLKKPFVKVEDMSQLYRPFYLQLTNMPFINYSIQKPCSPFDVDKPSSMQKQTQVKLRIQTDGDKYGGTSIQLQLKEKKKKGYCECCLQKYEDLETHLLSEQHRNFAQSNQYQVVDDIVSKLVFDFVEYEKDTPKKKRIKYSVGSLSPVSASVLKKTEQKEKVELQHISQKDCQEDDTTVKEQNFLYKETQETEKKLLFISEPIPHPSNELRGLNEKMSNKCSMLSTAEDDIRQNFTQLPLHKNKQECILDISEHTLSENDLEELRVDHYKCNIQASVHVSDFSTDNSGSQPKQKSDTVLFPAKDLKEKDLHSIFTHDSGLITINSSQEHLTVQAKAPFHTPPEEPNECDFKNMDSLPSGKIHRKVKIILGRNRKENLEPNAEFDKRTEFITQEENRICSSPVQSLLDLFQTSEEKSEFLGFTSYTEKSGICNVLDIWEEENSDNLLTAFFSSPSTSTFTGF

Row | IC50 (CDC7; [2]) [µM] | IC50 (CDC7; [3]) [µM] | IC50 [1] [µM] | IC50 (CK2) [µM] | SMILES | IC50 (CDC7; CDC7 IC50 (Activity A), Table 1 activity class, symbol given only if active) [µM]
1 | < 10 | < 0.1 | < 10 | < 10 | CCC(CC)NCc1nc2c(oc3ccc(Br)cc32)c(=O)[nH]1 [Compound 502, 8-bromo-2-{[(1-ethylpropyl)amino]methyl}[1]benzofuro[3,2-d]pyrimidin-4(3H)-one] | 
2 | < 10 | < 0.1 | < 10 | < 10 | Nc1cc(-c2nc3c(oc4ccc(Br)cc43)c(=O)[nH]2)c(Cl)cn1 [Compound 173, 2-(2-amino-5-chloropyridin-4-yl)-8-bromo[1]benzofuro[3,2-d]pyrimidin-4(3H)-one] | 
3 | < 10 |  | < 10 | < 10 | O=C(Nc1ccc(-c2nc3c(oc4ccc(Br)cc43)c(=O)[nH]2)c(Cl)c1)c1csnn1 [Compound 406, N-[4-(8-bromo-4-oxo-3,4-dihydro[1]benzofuro[3,2-d]pyrimidin-2-yl)-3-chlorophenyl]-1,2,3-thiadiazole-4-carboxamide] | 
4 | < 10 |  | < 10 | < 10 | O=c1[nH]c(-c2ccc(NCC3CCNC3)cc2Cl)nc2c1oc1ccc(Br)cc12 (stereo not drawn) [Compound 154, 8-bromo-2-{2-chloro-4-[(pyrrolidin-3-ylmethyl)amino]phenyl}[1]benzofuro[3,2-d]pyrimidin-4(3H)-one] | 
5 | < 10 |  | < 10 | < 10 | Cc1cnc(C(=O)Nc2ccc(-c3nc4c(oc5ccc(Br)cc54)c(=O)[nH]3)c(Cl)c2)cn1 [Compound 312, N-[4-(8-bromo-4-oxo-3,4-dihydro[1]benzofuro[3,2-d]pyrimidin-2-yl)-3-chlorophenyl]-5-methylpyrazine-2-carboxamide] | 
6 | < 10 | < 0.1 | < 10 | < 10 | CC1(C)CC[C@@H](c2nc3c(oc4ccc(Br)cc43)c(=O)[nH]2)N1 [Compound 515, 8-bromo-2-[(2S)-5,5-dimethylpyrrolidin-2-yl][1]benzofuro[3,2-d]pyrimidin-4(3H)-one] | 
7 | < 10 |  | < 10 | < 10 | NCCNC(=O)c1ccc(C(=O)Nc2ccc(-c3nc4c(oc5ccc(Br)cc54)c(=O)[nH]3)c(Cl)c2)nc1 [Compound 394, ′N′5′-(2-aminoethyl)-N′2′-[4-(8-bromo-4-oxo-3,4-dihydro[1]benzofuro[3,2-d]pyrimidin-2-yl)-3-chlorophenyl]pyridine-2,5-dicarboxamide] | 
8 | < 10 |  | < 10 | < 10 | O=C(Nc1ccc(-c2nc3c(oc4ccc(Br)cc43)c(=O)[nH]2)c(Cl)c1)c1cncnc1 [Compound 328, N-[4-(8-bromo-4-oxo-3,4-dihydro[1]benzofuro[3,2-d]pyrimidin-2-yl)-3-chlorophenyl]pyrimidine-5-carboxamide] | 
9 | < 10 | < 0.1 | < 10 | < 10 | O=c1[nH]c([C@@H]2CCN2)nc2c1oc1ccc(Br)cc12 [Compound 509, 2-[(2S)-azetidin-2-yl]-8-bromo[1]benzofuro[3,2-d]pyrimidin-4(3H)-one] | 
10 | < 10 | < 0.1 | < 10 | < 10 | O=c1[nH]c([C@@H]2C[C@@H](F)CN2)nc2c1oc1ccc(Br)cc12 [Compound 514, 8-bromo-2-[(2S,4R)-4-fluoropyrrolidin-2-yl][1]benzofuro[3,2-d]pyrimidin-4(3H)-one] | 
11 | < 10 |  | < 10 | < 10 | COc1ccc2oc3c(=O)[nH]c(-c4ccc(NCC5CCNCC5)cc4Cl)nc3c2c1 [Compound 138, 2-{2-chloro-4-[(piperidin-4-ylmethyl)amino]phenyl}-8-(methyloxy)[1]benzofuro[3,2-d]pyrimidin-4(3H)-one] | 
12 | < 10 | < 0.1 | < 10 | < 10 | O=c1[nH]c(C2CCCCN2)nc2c1oc1ccc(Br)cc12 (stereo not drawn) [Compound 534, 8-Bromo-2-piperidin-2-yl[1]benzofuro[3,2-d]pyrimidin-4(3H)-one hydrochloride] | 
13 | < 10 | < 0.1 | < 10 | < 10 | CN1CCCC(c2nc3c(oc4ccc(Br)cc43)c(=O)[nH]2)C1 (stereo not drawn) [Compound 184, dihydrochloride] | 
14 | < 10 | < 0.1 | < 10 | < 10 | O=c1[nH]c(CN2CC[C@H](O)C2)nc2c1oc1ccc3c(c12)OCO3 [Compound 476, 9-{[(3S)-3-hydroxypyrrolidin-1-yl]methyl}[1,3]dioxolo[4,5][1]benzofuro[3,2-d]pyrimidin-7(8H)-one] | 
15 | < 10 |  | < 10 | < 10 | O=c1[nH]c(-c2cnccc2Cl)nc2c1oc1ccc(Br)cc12 [Compound 148, 8-bromo-2-(4-chloropyridin-3-yl)[1]benzofuro[3,2-d]pyrimidin-4(3H)-one] | 
16 | < 10 |  | < 10 | < 10 | O=c1[nH]c(-c2ccc(NCCC3CCNCC3)cc2Cl)nc2c1oc1ccc(Br)cc12 [Compound 197, 8-bromo-2-{2-chloro-4-[(2-piperidin-4-ylethyl)amino]phenyl}[1]benzofuro[3,2-d]pyrimidin-4(3H)-one] | 
17 | < 10 | < 0.1 | < 10 | < 10 | COc1ccc2oc3c(=O)[nH]c(C4CCCN4)nc3c2c1 (stereo in doubt) [Compound 495, 8-(methyloxy)-2-[(2R)-pyrrolidin-2-yl][1]benzofuro[3,2-d]pyrimidin-4(3H)-one] | 
18 | < 10 |  | < 10 | < 10 | COC(=O)Nc1ccc(-c2nc3c(oc4ccc(Br)cc43)c(=O)[nH]2)c(Cl)c1 [Compound 320, methyl [4-(8-bromo-4-oxo-3,4-dihydro[1]benzofuro[3,2-d]pyrimidin-2-yl)-3-chlorophenyl]carbamate] | 
19 | < 10 | < 0.1 | < 10 | < 10 | O=c1[nH]c(C2CCNC2)nc2c1oc1ccc(Br)cc12 (stereo not drawn) [Compound 186, 8-bromo-2-pyrrolidin-3-yl[1]benzofuro[3,2-d]pyrimidin-4(3H)-one] | 
20 | < 10 |  | < 10 | < 10 | O=c1[nH]c(-c2ccc(CNC3CCCCC3)cc2Cl)nc2c1oc1ccc(Br)cc12 [Compound 427, 8-bromo-2-{2-chloro-4-[(cyclohexylamino)methyl]phenyl}[1]benzofuro[3,2-d]pyrimidin-4(3H)-one] | 
21 | < 10 | < 0.1 | < 10 | < 10 | O=c1[nH]c(CN2CC[C@H](O)C2)nc2c1oc1ccc3cn[nH]c3c12 [Compound 432, 9-{[(3S)-3-hydroxypyrrolidin-1-yl]methyl}-1H-pyrimido[4′,5′:4,5]furo[2,3-g]indazol-7(8H)-one] | 
22 | < 10 | < 0.1 | < 10 | < 10 | CC1CCN(Cc2nc3c(oc4ccc(Br)cc43)c(=O)[nH]2)CC1 [Compound 201, 8-bromo-2-[(4-methylpiperidin-1-yl)methyl][1]benzofuro[3,2-d]pyrimidin-4(3H)-one] | 
23 | < 10 |  | < 10 | < 10 | CNCc1ccc(-c2nc3c(oc4ccc(Br)cc43)c(=O)[nH]2)c(Cl)c1 [Compound 422, 8-bromo-2-{2-chloro-4-[(methylamino)methyl]phenyl}[1]benzofuro[3,2-d]pyrimidin-4(3H)-one] | 
24 | < 10 |  | < 10 | < 10 | O=C(Nc1ccc(-c2nc3c(oc4ccc(Br)cc43)c(=O)[nH]2)c(Cl)c1)C1CCNCC1 [Compound 161, N-[4-(8-bromo-4-oxo-3,4-dihydro[1]benzofuro[3,2-d]pyrimidin-2-yl)-3-chlorophenyl]piperidine-4-carboxamide] | 
25 | < 10 |  | < 10 | < 10 | Cc1nccn1Cc1nc2c(oc3ccc(Br)cc32)c(=O)[nH]1 [Compound 100, 8-bromo-2-[(2-methyl-1H-imidazol-1-yl)methyl][1]benzofuro[3,2-d]pyrimidin-4(3H)-one] | 
26 | < 10 |  | < 10 | < 10 | CC(C)(NCc1nc2c(oc3ccc(Br)cc32)c(=O)[nH]1)C(=O)O [Compound 189, N-[(8-bromo-4-oxo-3,4-dihydro[1]benzofuro[3,2-d]pyrimidin-2-yl)methyl]-2-methylalanine] | 
27 | < 10 | < 0.1 | < 10 | < 10 | O=c1[nH]c(CN2CC=CC2)nc2c1oc1ccc(Br)cc12 [Compound 331, 8-bromo-2-(3-pyrrolin-1-ylmethyl)[1]benzofuro[3,2-d]pyrimidin-4(3H)-one] | 
28 | < 10 | < 0.1 | < 10 | < 10 | O=c1[nH]c(CN2CCC[C@@H]2CO)nc2c1oc1ccc(Br)cc12 [Compound 344, 8-bromo-2-{[(2R)-2-(hydroxymethyl)pyrrolidin-1-yl]methyl}[1]benzofuro[3,2-d]pyrimidin-4(3H)-one] | 

Row | SMILES | IC50 (CDC7; [2]) [µM] | IC50 (CDC7; [3]) [µM] | IC50 [1] [µM] | IC50 (CK2) [µM] | IC50 (CDC7; CDC7 IC50 (Activity A), Table 1 activity class, symbol given only if active) [µM]
29 | O=c1[nH]c(CN2CCCC(O)C2)nc2c1oc1ccc(Br)cc12 (stereo not drawn) [Compound 400, 8-bromo-2-[(3-hydroxypiperidin-1-yl)methyl][1]benzofuro[3,2-d]pyrimidin-4(3H)-one] | < 10 | < 0.1 | < 10 | < 10 | 
30 | C[Si](C)(C)C#Cc1ccc2oc3c(=O)[nH]c(CN4CC[C@H](O)C4)nc3c2c1 [Compound 459, 2-{[(3S)-3-hydroxypyrrolidin-1-yl]methyl}-8-[(trimethylsilyl)ethynyl][1]benzofuro[3,2-d]pyrimidin-4(3H)-one] |  |  | < 10 | < 10 | < 10

Source: patent publication US20090247559A1 (Exelixis, Inc., priority 2007, published 2009)
